Measured values: patent US12643893B2, “Heteroaryl-pyridinium compound and redox flow battery comprising the same” (Korea Advanced Institute of Science and Technology, priority 2021, dated 2026)

How the values were obtained:
[1] = Cyclic voltammetry (CV) in three-electrode cells; type: physicochemical; conditions: for peak-to-peak potential difference (ΔEp): maintained for 100 CV cycles; for anodic-to-cathodic peak current ratio (Ipa/Ipc): preserved during 100 CV cycles; for Peak to peak potential difference (ΔEp) / Ratio of anodic peak current (Ipa) to cathodic peak current (Ipc) (Ipa/Ipc) @50 mV s^−1: 1st event (or only value); for potential shift after CV cycles: FIG. 7
Experimental: All electrochemical examinations were carried out using a Biologic VMP3 electrochemical workstation in an Ar-filled glove box (MOTek, negligible O2 and H2O, tested by the ketyl solution).
Cyclic voltammetry (CV) was conducted in three-electrode cells comprised of glassy carbon (GC; diameter (d)=3 mm) as the working electrode (WE), a platinum wire as the counter electrode (CE), and a leak-free Ag/AgCl as the reference electrode (RE). The GC electrodes were polished using alumina slurry before testing (ALS Co., Ltd).
After CV analysis, ferrocene (Fc, ferrocene, 98%, Sigma-Aldrich) was added to the cell to measure its redox potential, and the measured sample potential was converted to the Fc/Fc^+.

[2] = Rotating disk electrode LSV, diffusion coefficient (Levich equation); type: physicochemical
Experimental: To measure diffusion coefficient (D), rotating disk electrode (RDE; ALS Co., Ltd) measurements were conducted with the same three-electrode cells. […] Limited mass-transport provides a current plateau (iL) of redox processes, which is linearly proportional to the square root of the rotating rates (ω^1/2). The diffusion coefficient (D) was calculated by plotting IL as a function of ω^1/2 and through the Levich equation (equation S1). iL=0.620nFAD^2/3ω^1/2η^−1/6Co (equation S1)
where IL is the limiting current (A cm^−2), n is the number of electrons transferred during the redox reaction, F is the Faraday's constant (96485 C mol^−1), A is the area of the electrode (0.0707 cm^2), D is the diffusion coefficient (cm^2 […]), ω is the angular rotation rate (rad s^−1), η is the kinematic viscosity (0.00442 cm^2 s^−1, referred to 0.1 M TBAPF6/MeCN), and Co is the concentration of the sample chemical.

[3] = Solubility test (UV-vis calibration curves, maximum solubility); conditions: organic solvent or mixture, thermodynamic from solid
[4] = Electron-transfer rate from CV curves (Nicholson method); type: physicochemical
Experimental: The electron-transfer rate (k^0) was calculated from CV curves and using the Nicholson method(equation S2).
where k^o is the electron-transfer constant (cm/s), D is the diffusion coefficient estimated from the above RDE studies, R is the gas constant (8.314 J K^−1 mol^−1), T is the temperature (298 K), v is the scan rate of the CVs (mV s^−1).
The Ψ value was obtained by Kingler and Kochi relation (equation S3).
where ΔEp is the peak-to-peak potential for the corresponding reduction or oxidation event.

[5] = 1st event (single value for BTMAP-Fc), after 100 cycles (in parentheses)
[6] = 1st event (single value for BTMAP-Fc), initial
[7] = 1st redox event (single value for BTMAP-Fc), 4 mM in 0.1 M TBATFSI/MeCN
[8] = 2nd event, after 100 cycles (in parentheses)
[9] = 2nd redox event, 4 mM in 0.1 M TBATFSI/MeCN
[10] = first redox event (single event for BTMAP-Fc), CV, 4 mM in 0.1 M TBATFSI/MeCN
[11] = c1, first cathodic event (single value for BTMAP-Fc, oxidation process)
[12] = 0.5 M TBATFSI in MeCN, Solubility 0.5M TBATFSI/MeCN (M), electrolyte solution 0.5M TBATFSI/MeCN
[13] = 0.5 M TBATFSI in MeCN, maximum solubility in electrolyte solution, 0.5 M TBATFSI/MeCN
[14] = MeCN, Solubility MeCN (M), in MeCN
[15] = after 100 cycles (in parentheses)
[16] = initial, 10 mM in 0.1 M TBABF4/MeCN
[17] = 1st redox event (or the only value given), 10 mM in 0.1 M TBABF4/MeCN
[18] = 2nd redox event, 10 mM in 0.1 M TBABF4/MeCN
[19] = MeCN, Solubility (M) in MeCN, in MeCN

Row | Ipa/Ipc @50 mV s^−1 [1, 5] | ΔEp [1, 5] | Ipa/Ipc @50 mV s^−1 [1, 6] | ΔEp [1, 6] | E^o′ [1, 7] | Ipa/Ipc @50 mV s^−1 [1, 8] | ΔEp [1, 8] | Ipa/Ipc @50 mV s^−1 ([1]; 2nd event, initial) | ΔEp ([1]; 2nd event, initial) | E^o′ [1, 9] | D (diffusion coefficient) [2, 11] | k^o (electron-transfer constant) [4, 11] | Peak to peak potential difference (ΔEp) [1, 15] | Ratio of anodic peak current (Ipa) to cathodic peak current (Ipc) (Ipa/Ipc) @50 mV s^−1 [1, 15] | Peak to peak potential difference (ΔEp) [1, 16] | Ratio of anodic peak current (Ipa) to cathodic peak current (Ipc) (Ipa/Ipc) @50 mV s^−1 [1, 16] | Formal potential (E^o′) [1, 17] | Compound | Formal potential (E^o′) [1, 10] [V vs. Fc/Fc^+] | peak-to-peak potential difference (ΔEp) [1] [mV] | anodic-to-cathodic peak current ratio (Ipa/Ipc) [1] | also measured
1 |  |  |  |  |  |  |  |  |  |  |  |  | 124 mV | 0.99 | 125 mV | 0.98 | 1st = −1.36 V vs. Fc/Fc^+ | CCCCCC[n+]1ccc(-c2nc3ccccc3s2)cc1 [Hex-BTP^+·BF4^−, 4-(benzo[d]thiazol-2-yl)-1-hexylpyridin-1-ium tetrafluoroborate] |  |  |  | Formal potential (E^o′) [1, 18]: 2nd = −2.13 V vs. Fc/Fc^+; potential shift after CV cycles [1]: positive (+) potential shift; solubility [3, 19]: 0.23 M
2 |  |  |  |  |  |  |  |  |  |  |  |  | 107 mV | 0.98 | 104 mV | 1.00 | 1st = −1.24 V vs. Fc/Fc^+ | COCC[n+]1ccc(-c2nc3ccccc3s2)cc1 [MOE-BTP^+·BF4^−, 4-(benzo[d]thiazol-2-yl)-1-(2-methoxyethyl)pyridin-1-ium tetrafluoroborate] |  |  |  | Formal potential (E^o′) [1, 18]: 2nd = −1.97 V vs. Fc/Fc^+; potential shift after CV cycles [1]: positive (+) potential shift; solubility [3, 19]: 0.1 M
3 | (0.97) | (105) mV | 1st = 0.97 | 1st = 105 mV | 1st = −1.19 V vs. Fc/Fc^+ | (1.18) | (85) mV | 2nd = 1.08 | 2nd = 94 mV | 2nd = −1.87 V vs. Fc/Fc^+ | c1 = 1.91 X10^−6 cm^2 s^−1 | c1 = 0.114 cm s^−1 |  |  |  |  |  | C[N+](C)(C)CCC[n+]1ccc(-c2nc3ccccc3s2)cc1 [TMAP-BTP^2+·2TFSI^−, 4-(benzo[d]thiazol-2-yl)-1-(3-(trimethylammonio)propyl)pyridin-1-ium bistriflimide] |  |  |  | D (diffusion coefficient) ([2]; c2, second cathodic event): c2 = 1.91 X10^−6 cm^2 s^−1; solubility [3, 12]: 0.34 M; solubility [3, 13]: 0.34 M; solubility [3, 14]: 0.89 M; k^o (electron-transfer constant) ([4]; c2, second cathodic event): c2 = 0.124 cm s^−1

Second part, the compound before the results:

Row | Compound | Ipa/Ipc @50 mV s^−1 [1, 5] | ΔEp [1, 5] | Ipa/Ipc @50 mV s^−1 [1, 6] | ΔEp [1, 6] | E^o′ [1, 7] | Ipa/Ipc @50 mV s^−1 [1, 8] | ΔEp [1, 8] | Ipa/Ipc @50 mV s^−1 ([1]; 2nd event, initial) | ΔEp ([1]; 2nd event, initial) | E^o′ [1, 9] | D (diffusion coefficient) [2, 11] | k^o (electron-transfer constant) [4, 11] | Peak to peak potential difference (ΔEp) [1, 15] | Ratio of anodic peak current (Ipa) to cathodic peak current (Ipc) (Ipa/Ipc) @50 mV s^−1 [1, 15] | Peak to peak potential difference (ΔEp) [1, 16] | Ratio of anodic peak current (Ipa) to cathodic peak current (Ipc) (Ipa/Ipc) @50 mV s^−1 [1, 16] | Formal potential (E^o′) [1, 17] | Formal potential (E^o′) [1, 10] [V vs. Fc/Fc^+] | peak-to-peak potential difference (ΔEp) [1] [mV] | anodic-to-cathodic peak current ratio (Ipa/Ipc) [1] | also measured
4 | C[n+]1ccc(-c2nc3ccccc3s2)cc1 [BTP^+·TFSI^−, 4-(benzo[d]thiazol-2-yl)-1-methylpyridin-1-ium bistriflimide] | (0.99) | 1st = 99 (99) mV | 1st = 1.01 | 1st = 99 (99) mV | 1st = −1.21 V vs. Fc/Fc^+ | (0.87) | 84 mV | 2nd = 0.95 | 93 mV | 2nd = −1.90 V vs. Fc/Fc^+ | c1 = 3.71 X10^−6 cm^2 s^−1 | c1 = 0.086 cm s^−1 |  |  |  |  |  | −1.21 | ~99 | 1.01 | Formal potential (E^o′) ([1]; second redox event, CV, 4 mM in 0.1 M TBATFSI/MeCN): −1.90 V vs. Fc/Fc^+; D (diffusion coefficient) ([2]; c2, second cathodic event): c2 = 3.32 X10^−6 cm^2 s^−1; solubility [3, 12]: 0.47 M; solubility [3, 13]: 0.47 M; solubility [3, 14]: 1 M; k^o (electron-transfer constant) ([4]; c2, second cathodic event): c2 = 0.090 cm s^−1
5 | C[N+](C)(C)CCC[c-]1cccc1.C[N+](C)(C)CCC[c-]1cccc1.O=S(=O)([N-]S(=O)(=O)C(F)(F)F)C(F)(F)F.O=S(=O)([N-]S(=O)(=O)C(F)(F)F)C(F)(F)F.[Fe+2] [BTMAP-Fc·2TFSI^−, 1,1′-bis[3-(trimethylammonio)propyl]ferrocene dibis-trifluoromethanesulfonimidate, reference compound] | 1.03 (1.03) | 149 (149) mV | 1.03 (1.03) | 149 (149) mV | −0.03 V vs. Fc/Fc^+ |  |  |  |  |  | 2.00 X10^−6 cm^2 s^−1 | 0.034 cm/s |  |  |  |  |  | −0.03 | ~150 | about 1 | diffusion coefficient (D) ([2]; 0.1 M TBATFSI/MeCN): 2.0×10^−6 cm^2 s^−1; electron-transfer constant (k^o) ([4]; 0.1 M TBATFSI/MeCN): 0.034 cm/s
6 | C[n+]1ccc(-c2nc3ccccc3o2)cc1 [BOP^+·BF4^−, 4-(benzo[d]oxazol-2-yl)-1-methylpyridin-1-ium tetrafluoroborate] |  |  |  |  |  |  |  |  |  |  |  |  | 1st = 105 (105) mV | 0.46 | 1st = 105 (105) mV | 0.79 | 1st = −1.15 V vs. Fc/Fc^+ |  |  |  | 
